Laboratory results published in US11945816B2, “Inhibitors of EGFR and/or HER2 and methods of use” (Dana-Farber Cancer Institute, Inc., priority 2017, dated 2024).

Tests used:
Type in all cases: cell-based
[1] = biological target: T1, wild-type HER2 transformed Ba/F3 cells (Homo sapiens, UniProt P04626); assay: Proliferation inhibition assay, wild-type HER2 transformed Ba/F3 cells; details: MTS assay, 72 hours
T1 construct: expressed in transfected cells; host or cells: Ba/F3
Procedure: (§1) Cell growth inhibition can be assessed by MTS assay or by Cell Titer Glo Luminescent Cell viability assay (Promega®). Cells are seeded and grow in culture plates before they are exposed to representative compounds of the application for various duration. The viability of the cells are then assessed. […] The growth curves can be fitted using a nonlinear regression model with sigmoidal dose response.
(§2) Cell growth inhibition was assessed by MTS assay for Ba/F3, DFCI58-229, and DFCI127c cells, or by Cell Titer Glo Luminescent Cell viability assay (Promega®) for DFC1362JC cells, 3000 Ba/F3 cells were seeded for per well in 96-well plates, and were exposed to representative compounds of the application (3.3 nM to 10 μM) for 72 hours. For DFCI58-229, DFCI127c, and DFC1362JC cells, 5000 cells were seeded per well. All experimental points included 6 to 12 wells. […] The growth curves were fitted using a nonlinear regression model with sigmoidal dose response.
(§3) Activities of representative compounds of the present application in inhibiting EGFR and HER2 were tested by MTS assay (for Ba/F3 cell, DFCI58-229 cell, and DFCI127c cells) or by CellTiter-Glot luminescent cell viability assay (for DFCI362JC cells). For assays with Ba/F3 cells, 3000 cells were seeded for per well in 96-well plates and were exposed to indicated compounds with a concentration of 3.3 to 10 μM for 72 hours. For assays with DFCI58-229 cell, DFCI127c cell, or DFCI362JC cell, 5000 cells were seeded per well in 96-well plates and were exposed to indicated compounds with a concentration of 3.3 to 10 μM for 72 hours.

[2] = biological target: T2, HER2 InsWLV transformed Ba/F3 cells (Homo sapiens, UniProt P04626, INS773WL/M774V); assay: Proliferation inhibition assay, HER2 InsWLV transformed Ba/F3 cells; details: MTS assay, 72 hours
T2 construct: expressed in transfected cells; host or cells: Ba/F3
T2 sequence (P04626 with tags, fused parts or gaps INS773WL/M774V): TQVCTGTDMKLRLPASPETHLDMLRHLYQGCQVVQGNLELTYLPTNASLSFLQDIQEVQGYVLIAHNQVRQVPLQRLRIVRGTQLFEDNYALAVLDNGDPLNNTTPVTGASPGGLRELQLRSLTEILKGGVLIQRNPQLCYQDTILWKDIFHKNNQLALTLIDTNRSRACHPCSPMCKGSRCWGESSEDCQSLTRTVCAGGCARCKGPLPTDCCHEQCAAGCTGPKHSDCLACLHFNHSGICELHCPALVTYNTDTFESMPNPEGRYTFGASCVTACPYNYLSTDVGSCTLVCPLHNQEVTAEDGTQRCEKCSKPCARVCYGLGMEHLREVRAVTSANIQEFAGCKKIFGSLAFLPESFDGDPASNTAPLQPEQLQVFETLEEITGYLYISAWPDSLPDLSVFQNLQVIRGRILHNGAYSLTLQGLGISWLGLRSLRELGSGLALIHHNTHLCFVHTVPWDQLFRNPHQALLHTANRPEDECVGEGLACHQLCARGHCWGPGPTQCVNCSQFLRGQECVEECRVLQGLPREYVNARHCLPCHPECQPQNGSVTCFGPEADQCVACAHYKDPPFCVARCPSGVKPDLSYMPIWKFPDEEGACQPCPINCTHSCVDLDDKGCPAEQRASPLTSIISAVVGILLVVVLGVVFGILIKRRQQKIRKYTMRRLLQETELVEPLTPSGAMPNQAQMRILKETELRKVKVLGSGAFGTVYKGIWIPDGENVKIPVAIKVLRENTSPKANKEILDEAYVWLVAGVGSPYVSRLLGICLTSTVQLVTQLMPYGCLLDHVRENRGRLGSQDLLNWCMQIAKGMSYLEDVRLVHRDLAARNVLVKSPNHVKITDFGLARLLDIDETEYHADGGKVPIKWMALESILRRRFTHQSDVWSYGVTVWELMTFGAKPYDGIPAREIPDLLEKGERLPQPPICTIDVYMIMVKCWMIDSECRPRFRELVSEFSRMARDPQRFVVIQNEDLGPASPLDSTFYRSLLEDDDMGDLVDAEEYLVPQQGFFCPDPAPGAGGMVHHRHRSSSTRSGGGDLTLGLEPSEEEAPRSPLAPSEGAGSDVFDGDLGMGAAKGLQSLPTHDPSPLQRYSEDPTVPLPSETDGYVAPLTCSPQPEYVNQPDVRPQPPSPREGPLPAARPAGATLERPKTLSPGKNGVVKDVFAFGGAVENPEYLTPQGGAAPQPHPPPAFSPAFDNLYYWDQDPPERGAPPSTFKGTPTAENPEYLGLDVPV
Procedure: as §1, §2, §3

[3] = biological target: T3, HER2 InsYVMA (A775_G776insYVMA) transformed Ba/F3 cells (Homo sapiens, UniProt P04626, INS775YVMA); assay: Proliferation inhibition assay, HER2 InsYVMA transformed Ba/F3 cells; details: MTS assay, 72 hours
T3 construct: expressed in transfected cells; host or cells: Ba/F3
Procedure: as §1, §2, §3

[4] = biological target: T4, EGFR InsNPG (D770_N771insNPG) transformed Ba/F3 cells (Homo sapiens, UniProt P00533, INS770NPG); assay: Proliferation inhibition assay, EGFR InsNPG transformed Ba/F3 cells; details: MTS assay, 72 hours
T4 construct: expressed in transfected cells; host or cells: Ba/F3
T4 sequence (P00533 with tags, fused parts or gaps INS770NPG): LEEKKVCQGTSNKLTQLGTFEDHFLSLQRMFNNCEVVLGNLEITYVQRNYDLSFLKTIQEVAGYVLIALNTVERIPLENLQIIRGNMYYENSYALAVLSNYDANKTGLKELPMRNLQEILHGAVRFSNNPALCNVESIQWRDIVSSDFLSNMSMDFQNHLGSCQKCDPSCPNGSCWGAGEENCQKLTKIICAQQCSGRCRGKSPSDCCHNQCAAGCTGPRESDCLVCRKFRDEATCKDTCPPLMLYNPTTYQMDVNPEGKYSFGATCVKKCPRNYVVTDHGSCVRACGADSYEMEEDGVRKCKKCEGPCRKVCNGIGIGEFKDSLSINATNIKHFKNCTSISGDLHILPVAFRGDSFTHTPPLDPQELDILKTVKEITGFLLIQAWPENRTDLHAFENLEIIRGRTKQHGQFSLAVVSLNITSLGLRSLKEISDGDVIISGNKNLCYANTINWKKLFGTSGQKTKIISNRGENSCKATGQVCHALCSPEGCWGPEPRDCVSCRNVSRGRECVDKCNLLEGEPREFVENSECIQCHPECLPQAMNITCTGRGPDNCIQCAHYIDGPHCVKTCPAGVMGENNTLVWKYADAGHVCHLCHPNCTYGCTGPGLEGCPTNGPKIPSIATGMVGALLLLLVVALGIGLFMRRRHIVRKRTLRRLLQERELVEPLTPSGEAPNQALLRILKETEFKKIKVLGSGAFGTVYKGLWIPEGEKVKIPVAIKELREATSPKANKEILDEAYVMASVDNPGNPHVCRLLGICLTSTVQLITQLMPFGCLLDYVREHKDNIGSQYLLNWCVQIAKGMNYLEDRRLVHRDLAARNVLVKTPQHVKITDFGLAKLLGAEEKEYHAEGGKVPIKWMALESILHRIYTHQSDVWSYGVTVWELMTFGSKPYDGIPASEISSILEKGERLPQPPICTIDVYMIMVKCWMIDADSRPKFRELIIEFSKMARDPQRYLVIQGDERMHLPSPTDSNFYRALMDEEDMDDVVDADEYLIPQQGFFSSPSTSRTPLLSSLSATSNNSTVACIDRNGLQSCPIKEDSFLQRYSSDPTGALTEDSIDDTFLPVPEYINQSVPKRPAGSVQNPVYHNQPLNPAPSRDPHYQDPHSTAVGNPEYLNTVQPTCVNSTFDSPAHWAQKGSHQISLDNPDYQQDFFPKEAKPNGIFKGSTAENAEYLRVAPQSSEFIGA
Procedure: as §1, §2, §3

[5] = biological target: T5, EGFR InsHH (Y764_V765insHH) transformed Ba/F3 cells (Homo sapiens, UniProt P00533, INS764HH); assay: Proliferation inhibition assay, EGFR InsHH transformed Ba/F3 cells; details: MTS assay, 72 hours
T5 construct: expressed in transfected cells; host or cells: Ba/F3
Procedure: as §1, §2, §3

[6] = biological target: T6, EGFR InsGY (D770delinsGY) transformed Ba/F3 cells (Homo sapiens, UniProt P00533, D770Y/INS769G); assay: Proliferation inhibition assay, EGFR InsGY transformed Ba/F3 cells; details: MTS assay, 72 hours
T6 construct: expressed in transfected cells; host or cells: Ba/F3
Procedure: as §1, §2, §3

[7] = biological target: T7, HER2 InsGSP (P780_Y781insGSP) transformed Ba/F3 cells (Homo sapiens, UniProt P04626, INS780GSP); assay: Proliferation inhibition assay, HER2 InsGSP transformed Ba/F3 cells; details: MTS assay, 72 hours, Table 9 key
T7 construct: expressed in transfected cells; host or cells: Ba/F3
Procedure: as §1, §2, §3

[8] = biological target: T8, EGFR InsSVD (D770_N771insSVD) transformed Ba/F3 cells (Homo sapiens, UniProt P00533, INS770SVD); assay: Proliferation inhibition assay, EGFR InsSVD transformed Ba/F3 cells; details: MTS assay, 72 hours
T8 construct: expressed in transfected cells; host or cells: Ba/F3
Procedure: as §1, §2, §3

[9] = biological target: T9, HER2 InsVC (G776delinsVC) transformed Ba/F3 cells (Homo sapiens, UniProt P04626, G776C/INS775V); assay: Proliferation inhibition assay, HER2 InsVC transformed Ba/F3 cells; details: MTS assay, 72 hours, Table 9 key
T9 construct: expressed in transfected cells; host or cells: Ba/F3
Procedure: as §1, §2, §3

[10] = biological target: T10, EGFR InsH transformed Ba/F3 cells (Homo sapiens, UniProt P00533, DUP773-773); assay: Proliferation inhibition assay, EGFR InsH transformed Ba/F3 cells; details: MTS assay, 72 hours
T10 construct: expressed in transfected cells; host or cells: Ba/F3
T10 sequence (P00533 with tags, fused parts or gaps DUP773-773): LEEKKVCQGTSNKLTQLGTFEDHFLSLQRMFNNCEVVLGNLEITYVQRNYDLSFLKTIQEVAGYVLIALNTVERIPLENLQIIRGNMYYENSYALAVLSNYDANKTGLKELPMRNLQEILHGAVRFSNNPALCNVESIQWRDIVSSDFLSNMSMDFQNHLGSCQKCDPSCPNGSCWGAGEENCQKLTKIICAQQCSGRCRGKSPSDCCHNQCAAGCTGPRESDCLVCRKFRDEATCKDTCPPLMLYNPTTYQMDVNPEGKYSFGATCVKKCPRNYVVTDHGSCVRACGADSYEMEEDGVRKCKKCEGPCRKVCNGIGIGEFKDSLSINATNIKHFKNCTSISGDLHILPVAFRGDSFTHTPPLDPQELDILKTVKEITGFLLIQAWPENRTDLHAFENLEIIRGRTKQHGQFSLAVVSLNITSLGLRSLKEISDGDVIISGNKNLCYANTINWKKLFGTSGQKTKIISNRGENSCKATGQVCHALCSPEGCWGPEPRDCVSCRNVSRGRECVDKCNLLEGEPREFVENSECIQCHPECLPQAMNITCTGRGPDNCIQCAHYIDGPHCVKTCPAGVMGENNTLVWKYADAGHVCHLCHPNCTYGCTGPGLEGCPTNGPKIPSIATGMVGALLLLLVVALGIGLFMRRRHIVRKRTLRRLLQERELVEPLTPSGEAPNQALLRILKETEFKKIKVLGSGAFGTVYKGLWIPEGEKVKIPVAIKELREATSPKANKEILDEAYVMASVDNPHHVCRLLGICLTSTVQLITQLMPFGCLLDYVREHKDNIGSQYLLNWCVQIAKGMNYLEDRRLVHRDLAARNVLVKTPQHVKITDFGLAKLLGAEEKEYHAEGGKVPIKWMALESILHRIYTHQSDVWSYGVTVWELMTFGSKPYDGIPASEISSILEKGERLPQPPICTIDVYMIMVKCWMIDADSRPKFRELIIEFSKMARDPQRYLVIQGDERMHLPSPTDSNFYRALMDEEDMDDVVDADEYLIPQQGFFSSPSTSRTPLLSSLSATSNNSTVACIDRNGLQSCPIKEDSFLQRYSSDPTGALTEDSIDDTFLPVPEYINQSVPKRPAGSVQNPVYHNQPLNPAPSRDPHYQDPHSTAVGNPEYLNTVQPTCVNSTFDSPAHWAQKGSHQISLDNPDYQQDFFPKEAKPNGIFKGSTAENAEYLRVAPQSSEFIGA
Procedure: as §1, §2, §3

[11] = biological target: T11, wild-type EGFR transformed Ba/F3 cells (Homo sapiens, UniProt P00533); assay: Proliferation inhibition assay, wild-type EGFR transformed Ba/F3 cells; details: MTS assay, 72 hours
T11 construct: expressed in transfected cells; host or cells: Ba/F3
Procedure: as §1, §2, §3

[12] = biological target: T12, EGFR InsASV (V769_D770insASV) transformed Ba/F3 cells (Homo sapiens, UniProt P00533, INS769ASV); assay: Proliferation inhibition assay, EGFR InsASV transformed Ba/F3 cells; details: MTS assay, 72 hours
T12 construct: expressed in transfected cells; host or cells: Ba/F3
Procedure: as §1, §2, §3

T1 sequence (P04626 23-1255): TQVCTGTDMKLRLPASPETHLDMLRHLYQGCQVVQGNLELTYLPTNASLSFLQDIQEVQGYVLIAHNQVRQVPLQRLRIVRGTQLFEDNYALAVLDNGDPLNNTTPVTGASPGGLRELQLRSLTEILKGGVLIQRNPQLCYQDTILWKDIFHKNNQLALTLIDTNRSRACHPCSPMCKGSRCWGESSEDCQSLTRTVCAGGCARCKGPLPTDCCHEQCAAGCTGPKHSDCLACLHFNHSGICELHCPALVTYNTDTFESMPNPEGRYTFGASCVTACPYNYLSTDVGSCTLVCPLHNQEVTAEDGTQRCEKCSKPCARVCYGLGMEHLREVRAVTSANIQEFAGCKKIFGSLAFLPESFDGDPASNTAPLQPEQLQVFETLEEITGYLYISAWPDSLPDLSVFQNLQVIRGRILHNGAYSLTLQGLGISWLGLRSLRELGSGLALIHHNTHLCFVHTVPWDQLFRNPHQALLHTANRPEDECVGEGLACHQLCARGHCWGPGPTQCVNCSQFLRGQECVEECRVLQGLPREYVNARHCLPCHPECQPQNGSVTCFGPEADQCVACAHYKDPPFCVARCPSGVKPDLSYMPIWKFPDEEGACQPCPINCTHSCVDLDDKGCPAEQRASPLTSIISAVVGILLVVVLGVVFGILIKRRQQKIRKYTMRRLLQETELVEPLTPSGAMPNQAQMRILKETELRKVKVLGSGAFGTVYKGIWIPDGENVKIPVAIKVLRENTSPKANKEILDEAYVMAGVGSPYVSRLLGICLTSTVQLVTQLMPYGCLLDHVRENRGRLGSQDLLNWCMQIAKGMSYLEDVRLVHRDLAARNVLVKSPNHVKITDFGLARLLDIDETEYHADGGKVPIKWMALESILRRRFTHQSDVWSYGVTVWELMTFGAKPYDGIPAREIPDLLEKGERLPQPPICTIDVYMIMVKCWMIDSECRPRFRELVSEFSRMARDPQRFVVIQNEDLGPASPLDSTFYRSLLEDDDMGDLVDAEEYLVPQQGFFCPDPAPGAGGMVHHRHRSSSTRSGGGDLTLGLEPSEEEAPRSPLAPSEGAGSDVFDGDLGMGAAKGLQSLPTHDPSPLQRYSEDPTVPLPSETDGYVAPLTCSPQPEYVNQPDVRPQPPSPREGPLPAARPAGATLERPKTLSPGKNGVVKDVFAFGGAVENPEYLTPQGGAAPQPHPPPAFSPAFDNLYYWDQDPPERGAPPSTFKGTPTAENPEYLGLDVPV

Row | SMILES | EC50 ([1]; Table 9 key) [nM] | EC50 ([2]; Table 9 key) [nM] | EC50 ([3]; Table 9 key) [nM] | EC50 [4] [nM] | EC50 [5] [nM] | EC50 [6] [nM] | EC50 [7] [nM] | EC50 [8] [nM] | EC50 [9] [nM] | EC50 [10] [nM] | EC50 [11] [nM] | EC50 [12] [nM] | EC50 ([1]; Table 10 key) [nM] | EC50 ([2]; Table 10 key) [nM] | EC50 ([3]; Table 10 key) [nM]
1 | C=CC(=O)N1CCC[C@@H](n2c(=O)c(Oc3ccc(F)cc3F)cc3cnc(Nc4cnn(C5CCN(C)CC5)c4)nc32)C1 [Compound 17] | < 100 | 250 to 500 | < 100 | < 200 | 200 to 600 | < 200 | < 100 | < 200 | < 100 | 600 to 1000 | < 200 | < 200 |  |  | 
2 | C=CC(=O)Nc1cccc(-n2c(=O)c(Oc3ccc(F)cc3F)cc3cnc(Nc4cn(C)nc4OCC)nc32)c1 [Compound 8] | < 100 | < 100 | < 100 | < 200 | < 200 | < 200 | < 100 | < 200 | < 100 | < 200 | < 200 | < 200 |  |  | 
3 | C=CC(=O)Nc1cccc(-n2c(=O)c(Oc3ccc(F)cc3F)cc3cnc(Nc4ccc(N5CCC(N6CCN(C)CC6)CC5)cc4)nc32)c1 [Compound 7] | < 100 | 100 to 250 | < 100 | < 200 | < 200 | < 200 | < 100 | < 200 | 100 to 250 | 200 to 600 | < 200 | < 200 |  |  | 
4 | C=CC(=O)N1CCC(Cn2c(=O)c(Oc3ccc(F)cc3F)cc3cnc(Nc4cnn(C)c4)nc32)C1 (stereo not shown) [Compound 26] | < 100 | 100 to 250 | > 500 | < 200 | 600 to 1000 | < 200 | < 100 | < 200 | 250 to 500 | > 1000 | < 200 | < 200 |  |  | 
5 | C=CC(=O)Nc1cccc(-n2c(=O)c(Oc3ccc(F)cc3)cc3cnc(Nc4cnn(C)c4)nc32)c1 [Compound 1, N-(3-(6-(4-fluorophenoxy)-2-((1-methyl-1H-pyrazol-4-yl)amino)-7-oxopyrido[2,3-d]pyrimidin-8(7H)-yl)phenyl)acrylamide] | < 100 | 100 to 250 | < 100 | < 200 | < 200 | < 200 | < 100 | < 200 | < 100 | < 200 | < 200 | < 200 |  |  | 
6 | C=CC(=O)Nc1cccc(-n2c(=O)c(Oc3ccc(F)cc3F)cc3cnc(Nc4cnn(C(F)F)c4)nc32)c1 [Compound 5] | < 100 | 100 to 250 | < 100 | < 200 | < 200 | < 200 | < 100 | < 200 | 100 to 250 | < 200 | < 200 | < 200 |  |  | 
7 | C=CC(=O)Nc1cccc(-n2c(=O)c(Oc3ccc(F)cc3F)cc3cnc(Nc4cn(C)nc4OC)nc32)c1 [Compound 4] | < 100 | < 100 | < 100 | < 200 | < 200 | < 200 | < 100 | < 200 | < 100 | < 200 | < 200 | < 200 |  |  | 
8 | C=CC(=O)N1CCC[C@@H](n2c(=O)c(Oc3ccc(F)cc3F)cc3cnc(Nc4cnn(C)c4)nc32)C1 [Compound 15, (R)-8-(1-acryloylpiperidin-3-yl)-6-(2,4-difluorophenoxy)-2-((1-methyl-1H-pyrazol-4-yl)amino)pyrido[2,3-d]pyrimidin-7(8H)-one] | < 100 | 100 to 250 | < 100 | < 200 | 200 to 600 | < 200 | < 100 | < 200 | < 100 | > 1000 | < 200 | < 200 |  |  | 
9 | C=CC(=O)Nc1cccc(-n2c(=O)c(Oc3ccc(F)cc3F)cc3cnc(Nc4ccc(N5CCN(C)CC5)cc4OC)nc32)c1 [Compound 6] | < 100 | < 100 | < 100 | < 200 | < 200 | < 200 | < 100 | < 200 | 100 to 250 | < 200 | < 200 | < 200 |  |  | 
10 | C=CC(=O)NC1CCCC(n2c(=O)c(Oc3ccc(F)cc3F)cc3cnc(Nc4cnn(C)c4)nc32)C1 (stereo not shown) [Compound 23] | < 100 | 100 to 250 | < 100 | < 200 | < 200 | < 200 | < 100 | < 200 | < 100 | 200 to 600 | < 200 | < 200 |  |  | 
11 | CN(C)C/C=C/C(=O)Nc1cccc(-n2c(=O)c(Oc3ccc(F)cc3F)cc3cnc(Nc4cnn(C)c4)nc32)c1 [Compound 10] | < 100 | 250 to 500 | < 100 | < 200 | 200 to 600 | 200 to 600 | < 100 | 200 to 600 | 250 to 500 | 600 to 1000 | 200 to 600 | < 200 |  |  | 
12 | C=CC(=O)N1CCCC(n2c(=O)c(Oc3ccc(F)cc3F)cc3cnc(Nc4cnn(C)c4)nc32)CC1 (stereo not shown) [Compound 24] | < 100 | 100 to 250 | < 100 | < 200 | 200 to 600 | < 200 | < 100 | < 200 | < 100 | 200 to 600 | < 200 | < 200 |  |  | 
13 | C=CC(=O)Nc1cc(Nc2ncc3cc(Oc4ccc(F)cc4F)c(=O)n(C)c3n2)c(OC)cc1N(C)CCN(C)C [Compound 29, N-(5-((6-(2,4-difluorophenoxy)-8-methyl-7-oxo-7,8-dihydropyrido[2,3-d]pyrimidin-2-yl)amino)-2-((2-(dimethylamino)ethyl)(methyl)amino)-4-methoxyphenyl)acrylamide] | < 100 | < 100 | < 100 | < 200 | < 200 | < 200 | < 100 | < 200 | < 100 | < 200 | < 200 | < 200 |  |  | 
14 | C=CC(=O)Nc1cc(Nc2ncc3cc(Oc4c(F)cc(F)cc4F)c(=O)n(C)c3n2)c(OC)cc1N(C)CCN(C)C [Compound 136] |  |  |  |  |  | < 200 |  | < 200 |  | 200 to 600 | < 200 |  | < 200 | < 200 | < 200
15 | C=CC(=O)Nc1cc(Nc2ncc3cc(Oc4ccc(F)cc4F)c(=O)n(C)c3n2)ncc1N(C)CCN(C)C [Compound 105] |  |  |  |  |  | > 1000 |  | > 1000 |  | > 1000 | 200 to 600 |  | 200 to 600 | 600 to 1000 | 600 to 1000
16 | C=CC(=O)Nc1cc(Nc2ncc3cc(Oc4ccc(F)cc4F)c(=O)[nH]c3n2)c(OC)cc1N(C)CCN(C)C [Compound 99] |  |  |  |  |  | < 200 |  | < 200 |  | 200 to 600 | < 200 |  | < 200 | < 200 | < 200
17 | C=CC(=O)Nc1cccc(-n2c(=O)c(Oc3c(F)cc(F)cc3F)cc3cnc(Nc4cnn(C)c4)nc32)c1 [Compound 82] |  |  |  |  |  | < 200 |  | < 200 |  | < 200 | < 200 |  | < 200 | < 200 | < 200
